Earlier results in patent US20250041478A1, “FIBROUS POLYPEPTIDE-BASED BIOSCAFFOLD DELIVERY OF THERAPEUTICS TO NEURAL CELLS” (priority 2023, published 2025).
Where a name gives a salt, the structure may show the parent alone.

Conditions: in vivo

CN(C)c1ccc(O)c2c1C[C@H]1C[C@H]3[C@H](N(C)C)C(O)=C(C(N)=O)C(=O)[C@@]3(O)C(O)=C1C2=O [MH, minocycline hydrochloride]
plasma half-life: 11 to 23 h
